Experimental findings from patent publication US9198967B2, “Pharmaceutical compositions active in preventing, stabilizing and treating Alzheimer's disease” (priority 2009, dated 2015) are described below.

Molecules are shown by their SMILES.

This test concerns fusiform erythrocytes (FE). Description: FE percentage by Nomarski microscopy on 400 erythrocytes, 6-month clinical study. As to conditions: 6 months. Format: in vivo, human. How it is done: The effect of the composition of the invention on FE is measured by the percentage difference in fusiform erythrocytes present in the patient's blood before and after treatment with the composition of the invention.
During the assessments blood was collected, after fasting since the previous evening, into heparinized and non-heparinized tubes. Aliquots of 5 ml were collected (2 of plasma and 1 of serum) from the brachial vein. The collected blood was immediately centrifuged and kept at −80° C. until required for the measurements. A fourth aliquot of 2 ml, without heparin, was collected for FE analysis.
FE measurements were carried out by isolating the erythrocyte pellet by centrifugation (100×g for 15 minutes at 4° C.) and diluting it in 2 ml of a citrate-phosphate-dextrose solution with adenine (CPDA) then centrifuged once more.
After centrifugation the upper part of the solution was removed and the process repeated three times always resuspending with CPDA.
Immediately after the last preparation, FE percentage was calculated using a microscope with Nomarski optics based on an analysis of 400 erythrocytes [Mohanty J G, Eckley D M, J D Williamson et al. Do red blood cell-β-amyloid interaction alter oxygen delivery in Alzheimer's disease? Adv Exp Med Biol 2008; 614:29-35.]

As to `COc1cc2c(cc1OC)C(=O)C(CC1CCN(Cc3ccccc3)CC1)C2` (stereo not shown) [Donepezil], the “effect on the number of FE (in words)” value is given as “improvement in the FE”.
